Where “and” joins values, the source holds several entries; their conditions need not be identical. Equal values may be shown once.
Legend:
[1] = molecular target: T1, αS aggregation (Homo sapiens, UniProt P37840); test: SDS-PAGE gel shift assay of soluble and insoluble αS fractions; type: biochemical; conditions: for Total (αS, SDS-PAGE gel shift), Average: average of 3 trials
T1 construct: made in house; host or cells: E. coli BL21(DE3)
Excerpt: The inhibition of αS aggregation by NS41 was also confirmed by TEM images, which show an abundance (Supplementary Fig. 3a) and low amount (Supplementary Fig. 3b) of αS fibers in the absence and presence of NS41, respectively. We used SDS-PAGE (Sodium dodecyl sulfate polyacrylamide gel electrophoresis) as a complementary assay to validate ThT results and to further characterize the antagonist activity of the monopyridyls against αS aggregation. We used a total of four monopyridyls with varying antagonist activity against αS aggregation for the SDS-PAGE assay. The solutions of αS (±monopyridyls) were centrifuged and the soluble and insoluble fractions were subjected to SDS-PAGE analysis as reported earlier (Fig. 2d, Supplementary Fig. 4a, see details in methods section). The band intensities of the gels in SDS-PAGE assay were quantified using ImageJ software. In the absence of ligands, ~12% of αS was found in the soluble fraction and the rest was found in the insoluble fraction (Fig. 2d, Supplementary Fig. 4a, b). In the presence of NS41 at molar ratios of 1:1 and 2:1 (NS41:αS), 48% and 73% of αS protein were found in the soluble fraction, respectively, and the rest of αS protein was found in the insoluble fraction (Fig. 2d, Supplementary Fig. 4a, b). […] The antagonist activity of the monopyridyls corroborated well from both ThT and the SDS-PAGE assays (Fig. 2a–d, Supplementary Fig. 4a, b). The higher the antagonist activity of monopyridyls against αS aggregation, the lower the ThT intensity and the higher the amount of αS remained in the soluble fraction (Fig. 2a–d, Supplementary Fig. 4a, b). […] It is important to note that NS41 contains a carboxyl (COOH) functional group side chain. […] We have also shown in that work that the foldamer binds to the N-terminus of αS because of its negatively charged COOH functional group interaction with the positively charged lysine residues of αS[24]. […] Additionally, we have also shown that the OPs with the COOH functional group are very effective inhibitors of aggregation of other amyloid proteins that contain lysine amino acid via the formation of salt bridges[30]–[34].
An αS solution (100 µM) was prepared in PBS with or without ligands and shaken ([…], 37 °C) until the fluorescence plateaued, as observed using the ThT aggregation assay, indicative of the aggregation of αS as a control (four days for most experiments unless otherwise mentioned). The solutions were separated into soluble and insoluble fractions by centrifugation at 22,000 × g for 20 min. The fractions were diluted in 2×Laemmli protein sample loading buffer (Containing 2.1% SDS, Bio-rad, Hercules, CA), boiled at 95 °C for 5 min, and ran on a 12% Mini-PROTEAN precast protein gel (Bio-rad, Hercules, CA). The gel was visualized using ChemiDoc MP Imaging System (Bio-rad, Hercules, CA) and band intensity was quantified using Image Lab image acquisition and analysis software (Bio-rad, Hercules, CA). Densitometry values were averaged from three technical replicates and reported with the error bars representing their standard deviations.

[2] = Parallel artificial membrane permeability assay (PAMPA); type: in vitro ADME
Protocol: The permeability of various ligands was assessed with a PAMPA kit (BioAssay Systems, Hayward, CA) according to a previously described protocol. Briefly, 4% lecithin solution (LS) was prepared in dodecane and 5 µL was applied to the donor plate membrane. Then, 300 μL PBS was added to the acceptor plate. Subsequently, 200 µL of ligand solutions (500 μM) and various permeability standards (high, medium, and low, 500 μM) were added to the donor plate membrane. The donor plate was placed in the acceptor plate and incubated at r.t. for 18 h. The solutions were then moved from the acceptor plate into a clear-bottom 96-well plate (Corning Inc., Corning, NY) and absorbance was recorded at 360 nm for various ligands and 275 nm for permeability standards. The permeability was calculated using Eq. (1) below, where the permeability rate, C, equals 7.72 × 10^–6, ODA is the absorbance of the acceptor solution, and ODE is the absorbance of the equilibrium standard.1 Pe=C×−ln1−ODA/ODEcm/s

[3] = test system: NL5901 worms; test: Motility assay of NL5901 worms (WMicroTracker ARENA); type: in vivo, C. elegans; conditions: for Motility of NL5901 worms + NS132: individual trials
Protocol: Briefly, all worm strains were bleached at the same time and the eggs were incubated on PLATE 1. On day two, the worms were divided into two batches. […] The liquid media for PLATE 4 A/B was prepared with 67.28% (v/v) of M9 buffer, 75 μM FUDR, 0.1% of 1 M magnesium sulfate (v/v), 0.1% of 1 M calcium chloride (v/v), 2.5% of 1 M potassium phosphate solution (pH 6, v/v), and 30% (v/v) of OP50 (0.5 OD600nm). […] To test the effect of each ligand on disease worm strains (NL5901 or UA196), there were four conditions were used in PLATE 4 A/B: […] The assay was started on day four using the WMicroTracker ARENA plate reader (Phylumtech, Santa Fe, Argentina) at 20 °C for 1 h per day over a 14-day period at intervals of 24 h. The WMicroTracker ARENA plate reader uses a large array of infrared light microbeams in each well of the plate to detect the interference caused by the movement of the worms. The output by the ARENA plate reader is an average of the overall movement of all worms present in each well, which is denoted as the motility of the worms in each well. […] After collecting the data each day, the PLATE 4 A/B was again placed on the shaker (100 rpm) at 20 °C in the incubator. The PLATE 4 A/B was on the on the shaker (100 rpm) at 20 °C in the incubator the whole duration of the experiment except only when the reading was collected on the WMicroTracker ARENA plate reader for 1 h.

Cc1ccc(NC(=O)c2ccc(NC(=O)c3ccc([N+](=O)[O-])c(NCCc4c[nH]c5ccccc45)n3)c(NCC3CCCCC3)n2)c(OCC(=O)O)n1 [NS132]
amount of αS in the insoluble fraction ([1]; 100 µM αS, four days, equimolar): 14% and 11% | Total (αS, SDS-PAGE gel shift), Average ([1]; NS132 0.2 eq.): 1.493 | Total (αS, SDS-PAGE gel shift), Trial 1-3 ([1]; NS132 0.2 eq., individual trials, Synuclein alone total ~1): 1.48 and 1.6 and 1.4 | Total (αS, SDS-PAGE gel shift), Average ([1]; NS132 1.0 eq.): 1.161 | Total (αS, SDS-PAGE gel shift), Trial 1-3 ([1]; NS132 1.0 eq., individual trials): 1.099 and 1.145 and 1.24 | αS band intensity, Total, Average ([1]; sheet S7B): 99.9667 | αS band intensity, Total ([1]; sheet S7B, individual trials): 92.4 and 101.3 and 106.2 | distribution of αS between soluble and insoluble fraction, in words ([1]; substoichiometric ratio αS:ligand 1:0.5): predominantly detected in the soluble fraction | cell permeability (PAMPA), comparison in words [2]: lower in comparison to the PAMPA medium standard | PAMPA permeability (Pe), individual trials ([2]; 500 μM in donor, 18 h, r.t., unit from Eq. 1): 2.69e-06 cm/s and 2.41e-06 cm/s and 2.71e-06 cm/s and 2.89e-06 cm/s | Papp at 18 h, 500 μM ([2]; PAMPA, 500 μM in donor, 18 h, r.t., unit from Eq. 1, read-out: PAMPA permeability (Pe), individual trials): 2.92 ×10⁻⁶ cm/s | motility of NL5901 worms, in words ([3]; 50 μM ligand on day two and day four): increase in the motility | Motility of NL5901 worms + NS132 ([3]; Day 4): 255 and 287 and 207 and 297 | Motility of NL5901 worms + NS132 ([3]; Day 5): 181 and 139 and 108 and 189 | Motility of NL5901 worms + NS132 ([3]; Day 6): 201 and 130 and 176 and 121 | Motility of NL5901 worms + NS132 ([3]; Day 7): 101 and 172 and 160 and 83 | Motility of NL5901 worms + NS132 ([3]; Day 8): 129 and 117 and 94 and 99 | Motility of NL5901 worms + NS132 ([3]; Day 9): 107 and 89 and 145 and 65 | Motility of NL5901 worms + NS132 ([3]; Day 10): 127 and 107 and 105 and 52 | Motility of NL5901 worms + NS132 ([3]; Day 11): 74 and 83 and 88 and 72 | Motility of NL5901 worms + NS132 ([3]; Day 12): 57 and 70 and 69 and 56 | Motility of NL5901 worms + NS132 ([3]; Day 13): 38 and 34 and 42 and 33 | Motility of NL5901 worms + NS132 ([3]; Day 14): 27 and 43 and 19 and 20

Reference: article PMC11061149, “Protein mimetic 2D FAST rescues alpha synuclein aggregation mediated early and post disease Parkinson’s phenotypes” (Nature Communications, 2024)
